Laboratory results reported in PubChem BioAssay (NCI).
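Results reflect a 48-hour exposure of cells in 96-well plates to compound at five concentrations. The concentration for 50% growth inhibition is given as GI50. TGI denotes the concentration required for complete inhibition of growth.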

Legend:
Experiment in all cases: NCI-60 cell line screen, 48 h
A549 NSCLC = test system: A549 NSCLC
BT-549 breast = test system: BT-549 breast
CAKI-1 renal = test system: CAKI-1 renal
HT29 colon = test system: HT29 colon
MDA-MB-435 = test system: MDA-MB-435
PC-3 prostate = test system: PC-3 prostate
SK-MEL-2 melanoma = test system: SK-MEL-2 melanoma
SK-OV-3 ovarian = test system: SK-OV-3 ovarian
TK-10 renal = test system: TK-10 renal
SR leukemia = test system: SR leukemia

Row | Structure (SMILES) | GI50 (A549 NSCLC) | TGI (A549 NSCLC) | GI50 (BT-549 breast) | TGI (BT-549 breast) | GI50 (CAKI-1 renal) | TGI (CAKI-1 renal) | GI50 (HT29 colon) | TGI (HT29 colon) | GI50 (MDA-MB-435) | TGI (MDA-MB-435) | GI50 (PC-3 prostate) | TGI (PC-3 prostate) | GI50 (SK-MEL-2 melanoma) | TGI (SK-MEL-2 melanoma) | GI50 (SK-OV-3 ovarian) | TGI (SK-OV-3 ovarian) | GI50 (TK-10 renal) | TGI (TK-10 renal) | TGI (SR leukemia) | GI50 (SR leukemia)
1 | C[C@]12CC[C@H]3[C@@H](CC=C4C[C@@H](O)CC[C@@]43C)[C@@H]1C/C(=C\c1cccc(OCCN3CCOCC3)c1)[C@@H]2O | > 100 µM | > 100 µM | 27 µM | 95.1 µM | > 100 µM | > 100 µM | 7.36 µM | > 100 µM | 85.1 µM | > 100 µM | 27.4 µM | > 100 µM | 55.2 µM | > 100 µM | > 100 µM | > 100 µM | > 100 µM | > 100 µM | – | –
2 | O=C(CC(=O)Nc1ccc(Cl)cc1)NNCC(=O)Nc1nc(-c2ccccc2)cs1 | – | > 100 µM | – | – | – | – | – | > 100 µM | – | – | – | – | – | – | – | > 100 µM | – | > 100 µM | – | –
3 | COc1ccc(C2(CN(C)C)COc3cc(OC)c(OC)cc3C2=O)cc1OC (stereo not drawn) | – | > 100 µM | – | – | – | > 100 µM | – | > 100 µM | – | – | – | – | – | – | – | > 100 µM | – | > 100 µM | > 100 µM | –
4 | Cc1cccc(C(C)O)n1 (stereo not drawn) | – | > 100 µM | – | > 100 µM | – | > 100 µM | – | > 100 µM | – | – | – | > 100 µM | – | > 100 µM | – | > 100 µM | – | > 100 µM | > 100 µM | –
5 | COc1ccc2c(c1)[nH]c(=O)c1c3cccnc3cn21 | 0.0479 µM | 24.4 µM | 0.356 µM | 25.3 µM | 0.0405 µM | 14.7 µM | 0.03 µM | 0.168 µM | – | – | 0.0338 µM | – | 0.037 µM | 11.3 µM | 0.0464 µM | > 52 µM | 0.056 µM | 18.8 µM | 5.75 µM | 0.0271 µM
6 | O=c1c2cc(Br)ccc2oc2ccc(Br)cc12 | – | > 100 µM | – | > 100 µM | – | > 100 µM | – | > 100 µM | – | > 100 µM | – | > 100 µM | – | > 100 µM | – | – | – | > 100 µM | – | –
7 | C/C(=N\NC(N)=S)c1ccc2c(c1)OCO2 | – | > 100 µM | – | – | – | > 100 µM | – | > 100 µM | – | – | – | – | – | > 100 µM | – | > 100 µM | – | > 100 µM | > 100 µM | –
8 | Clc1ccc(C2=Nc3ccccc3SC(c3ccc(Cl)c(Cl)c3)C2)c(Cl)c1 (stereo not drawn) | – | 43.6 µM | – | – | – | 29.6 µM | – | 28.5 µM | – | – | – | – | – | 31.5 µM | – | 52.1 µM | – | 36.9 µM | – | –
9 | CCOC(=O)c1cc2c(cc1Cl)SC(N(c1ccc(F)cc1)S(=O)(=O)c1ccc(OC)cc1)=NS2(=O)=O | 22 µM | > 100 µM | – | – | 20.2 µM | 48.7 µM | 16.1 µM | 34.6 µM | 14.8 µM | 44.7 µM | 11.3 µM | 25.5 µM | 12.4 µM | 35.1 µM | 24.3 µM | > 100 µM | 18.8 µM | 54.5 µM | 37.9 µM | 16.8 µM
10 | Cc1ccccc1C(C#N)/C(=N/NC(=O)c1cc2ccccc2cc1O)C(=O)Nc1cccc(Cl)c1 (stereo not drawn) | – | > 100 µM | – | – | – | > 100 µM | – | > 100 µM | – | – | – | – | – | 76 µM | – | > 100 µM | – | > 100 µM | 84.5 µM | –
11 | CCOC(=O)/C(C#N)=C(O)/C(=C/c1ccccc1Cl)NC(=O)c1ccccc1 | – | > 100 µM | – | – | – | > 100 µM | – | > 100 µM | – | – | – | – | – | – | – | > 100 µM | – | > 100 µM | – | –
12 | O=C1CCC(c2nc3ccccc3o2)C(=O)N1 (stereo not drawn) | – | > 100 µM | – | – | – | > 100 µM | – | > 100 µM | – | – | – | – | – | > 100 µM | – | > 100 µM | – | > 100 µM | > 100 µM | –
13 | CN1C(c2ccccc2)CC(=Nc2ccccc2)CC1c1ccccc1 (stereo not drawn) | – | 44.9 µM | – | – | – | 42.3 µM | – | 34.2 µM | – | – | – | – | – | – | – | 8.12 µM | – | 36.9 µM | 34.5 µM | –
14 | COc1cc2c(cc1OC)-c1c(cnn1C1OC(COC(C)=O)C(OC(C)=O)C(OC(C)=O)C1OC(C)=O)CC2 (stereo not drawn) | – | > 100 µM | – | – | – | > 100 µM | – | > 100 µM | – | – | – | – | – | > 100 µM | – | > 100 µM | – | > 100 µM | > 28.7 µM | –
15 | O=C(Nc1ccc(C(F)(F)F)cc1[N+](=O)[O-])C(=O)C(C(=O)c1ccc2ccccc2c1)C1OC(=O)c2ccccc21 (stereo not drawn) | – | > 71.3 µM | – | – | – | 41.7 µM | – | 23.9 µM | – | – | – | – | – | 29.9 µM | – | > 100 µM | – | 35 µM | > 100 µM | –
16 | N=C(c1ccccc1)N1CCCCC1 | – | > 100 µM | – | – | – | > 100 µM | – | > 100 µM | – | – | – | – | – | > 100 µM | – | – | – | > 100 µM | > 100 µM | –
17 | OCCN(CO)CN(CN(CO)CCO)c1nc(N(CN(CO)CCO)CN(CO)CCO)nc(N(CN(CO)CCO)CN(CO)CCO)n1 | 1.81 ng/mL | 131 ng/mL | – | – | – | – | 0.911 ng/mL | 15.2 ng/mL | – | – | 1.48 ng/mL | 4.46 ng/mL | – | – | 1.26 ng/mL | 4.21 ng/mL | – | – | 2.62 ng/mL | 0.742 ng/mL
18 | CC1CCC2(OC1)OC1CC3C4CC=C5CC(OC6OC(CO)C(OC7OC(C)C(OC8OC(C)C(O)C(O)C8O)C(O)C7O)C(O)C6OC6OC(C)C(O)C(O)C6O)CCC5(C)C4CCC3(C)C1C2C (stereo not drawn) | – | 1.39 µM | – | 3.07 µM | – | 2.55 µM | – | 2.2 µM | – | 1.18 µM | – | 2.08 µM | – | 2.5 µM | – | 2.31 µM | – | 2.68 µM | – | –
19 | COC(=O)c1nc(-c2ccc(Cl)c(Cl)c2)nc2ccccc12 | – | > 100 µM | – | – | – | > 100 µM | – | > 100 µM | – | – | – | – | – | > 100 µM | – | 31.2 µM | – | > 83.5 µM | – | –
20 | Cc1ccc2sc3cc(=O)cc(C)c-3nc2c1 | – | > 100 µM | – | – | – | 93.1 µM | – | > 100 µM | – | – | – | – | – | > 100 µM | – | > 100 µM | – | > 100 µM | > 100 µM | –
21 | COc1cc2c(/C=C3/C(=O)Nc4ccccc43)c(Cl)n(Cc3ccccc3)c2cc1C | > 100 µM | > 100 µM | > 100 µM | > 100 µM | > 100 µM | > 100 µM | – | – | 64.4 µM | > 100 µM | 87.9 µM | > 100 µM | > 100 µM | > 100 µM | > 100 µM | > 100 µM | > 100 µM | > 100 µM | – | –
22 | Cc1cc2c(C(C)C)c(O)c(O)c3coc(/c1=c1/c(C)cc4c(C(C)C)c(=O)c(=O)c5coc1c45)c32 | – | 15.6 µM | – | – | – | 26.9 µM | – | 14.4 µM | – | – | – | – | – | 17.9 µM | – | 33.7 µM | – | 27.8 µM | – | –
23 | CC(=O)/C=C1/c2ccccc2N(C(C)=O)C1O (stereo not drawn) | – | > 100 µM | – | – | – | > 100 µM | – | > 100 µM | – | – | – | – | – | > 100 µM | – | > 100 µM | – | – | > 100 µM | –
